Experimental data from US20220155314A1, “TROPHOBLAST STEM CELL, METHODS OF PREPARATION AND USES THEREOF” (Academia Sinica, priority 2020, published 2022).
Residues, ends and D or L forms follow the SMILES beside them. *: point of attachment. Cbz = O=C(OCc1ccccc1)*

How the values were obtained:
BeWo cells = test: Expression of trophoblast stemness and differentiation genes in BeWo cells treated with EGF and chemical inhibitors; format: cell-based, human; conditions: 1 mM VPA with 20 μM MG132, 8 h (FIG. 6G)
Experimental: FIGS. 6A to 6I show the regulation of trophoblast stemness and differentiation by antagonism between ΔNp63α and GCM1. […] ITGA6-positive term CTBs were cultured in complete TS medium for 5 days and then maintained in the same medium or incomplete medium (vehicle alone without EGF and chemical inhibitors) for an additional 7 days. Cells were subjected to immunofluorescence microscopy of ΔNp63α, GCM1, and hCGβ. […] BeWo cells were incubated in complete or incomplete TS medium supplemented with the indicated growth factor or chemical inhibitor(s) for 24 h. Cells were harvested for quantitative RT-PCR analysis of the indicated stemness or differentiation genes. […] BeWo cells were treated with the indicated concentration of VPA for 24 hours and then harvested for immunoblotting and quantitative RT-PCR analyses of GCM1, ΔNp63α, and hCGβ. […] BeWo cells were transfected with 4XCSL-luciferase in the presence or absence of 2 mM VPA for 48 hours, followed by luciferase assays. […] 293T cells were transfected with pHA-GCM1 and pNotch1IC-FLAG for 48 hours, followed by coimmunoprecipitation analysis and confocal microscopy using FLAG and HA mAbs and GCM1 Ab. […] EGFP-positive mock or Notch1IC-FLAG-expressing BeWo cells were treated with or without 50 μM FSK for 24 h, followed by immunoblotting and quantitative RT-PCR analyses of GCM1, hCGβ or HTRA4. […] BeWo cells were treated with or without 1 mM VPA in the presence or absence of 20 μM MG132 for 8 h and then subjected to immunoblotting analysis of GCM1 and Notch1IC. […] The EGFP-positive mock or Notch1IC-FLAG-expressing BeWo cells were transfected with the GCM1 promoter reporter plasmid E1bLUCGCM1-2K for 48 h and then subjected to luciferase assays. […] BeWo cells and ITGA6-positive term CTBs were cultured under normoxic or hypoxic conditions for 72 h and 7 days, respectively. Cells were then harvested for quantitative RT-PCR analysis of GCM1, ΔNp63α, HTRA4, hCGβ, and MKI67. Means and standard deviations obtained from three independent experiments are presented.
To study the effect of EGF and chemical inhibitors on trophoblast differentiation, BeWo cells were cultured in the complete TS medium or in the incomplete TS medium with EGF alone or the indicated chemical inhibitor(s) for 24 h. Cells were then harvested for quantitative RT-PCR or immunoblotting analysis of expression of ΔNp63α, eomesodermin (EOMES), E74-like factor 5 (ELF5) or GCM1 and its target genes.

ΔNp63α = ΔNp63α stability in JEG3 cells (FSK with or without MG132); format: cell-based, human; conditions: 50 μM FSK 24 h in presence of MG132 (FIG. 3F)
Experimental: FIGS. 3A to 3I show reciprocal regulation of GCM1 and ΔNp63α activities in trophoblast differentiation. […] Scramble control, ΔNp63α-knockdown or GCM1-knockdown JEG3 cells were treated with or without 50 μM FSK for 24 h and then harvested for immunoblotting and quantitative RT-PCR analyses of SYN1, hCGβ, HTRA4 proteins or transcripts. Arrowhead denotes a non-specific band recognized by ΔNp63α Ab. […] Scramble control and ΔNp63α knockdown JEG3 cells were treated with or without 50 μM FSK for 48 h, followed by immunofluorescence microscopy with E-cadherin Ab. Syncytial margins are marked with stippled line. Cell fusion was quantified by fusion index. […] Mock and ΔNp63α-FLAG-expressing BeWo cells or scramble control and ΔNp63α-knockdown JEG3 cells were subjected to immunoblotting and quantitative RT-PCR analyses of RACK1 and GATA3 proteins or transcripts. […] Scramble control or ΔNp63α-knockdown JEG3 cells were transfected with pHTRA4-1 Kb with or without pGATA3-FLAG for 48 h, followed by luciferase assays. […] WT and GCM1-KO JEG3 cells were treated with or without 50 μM FSK for 24 hours and then harvested for immunoblotting and quantitative RT-PCR analyses of GCM1, ΔNp63α, hCGβ proteins and transcripts. […] Quantitation of band intensity was performed by densitometry analysis, and the relative ΔNp63α protein level was normalized by β-actin. […]

CC(C)C[C@@H](C=O)NC(=O)[C@H](CC(C)C)NC(=O)[C@H](CC(C)C)NC(=O)OCc1ccccc1 [MG132] (Cbz-Leu-Leu-Leu-aldehyde)
VPA-mediated downregulation of GCM1 expression (BeWo cells): compromised | suppressive effect of FSK on ΔNp63α expression (ΔNp63α): counteracted
